Source: US7462615B2, “Inhibitors of cysteine proteases, the pharmaceutical compositions thereof and their therapeutic applications” (Hybrigenics SA, priority 2005, dated 2008)

These compounds were tested against T1, Uch-L3 (Homo sapiens, UniProt P15374) (assay: UCH-L3 Activity Assay). Conditions: 400 nM Ub-AMC; 13 pM enzyme; pre-incubated 30 minutes at 25° C., 60 minutes at 37° C.; sigmoidal fit; read-out: Uch-L3 (Inhibition of cysteine protease activities).
T1 sequence (P15374 1-230): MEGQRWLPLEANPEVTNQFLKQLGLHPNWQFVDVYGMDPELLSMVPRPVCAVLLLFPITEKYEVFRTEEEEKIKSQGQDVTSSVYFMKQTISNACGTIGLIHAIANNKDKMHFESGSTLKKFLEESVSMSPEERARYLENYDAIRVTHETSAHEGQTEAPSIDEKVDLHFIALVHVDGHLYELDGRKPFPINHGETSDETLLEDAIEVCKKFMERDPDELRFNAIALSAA
Assay type: biochemical
Procedure: Uch-L3 was diluted in USP buffer (50 mM Tris HCl; 0.5 mM EDTA; 5 mM DTT; 0.01% Triton X-100; Bovine Serum Albumin 0.05 mg.ml^−1 pH7.6). Compounds stocks (100 mM) were stored at −20° C. in DMSO. Compounds were tested at the following final concentrations: 100 μM; 33.3 μM; 11.1 μM: 3.7 μM; 1.23 μM; 412 nM; 137 nM; 45.7 nM; 15.2 nM; 5 nM.
Reactions were performed as duplicates in Black LJL 96 well plates (HE microplates; Molecular Devices; 20 μl final reaction volume). The substrate concentration for Uch-L3 was 400 nM Ub-AMC (Boston Biochem). The concentration of the enzyme (Uch-L3) in specificity assays was 13 pM. The concentrations were determined in order to perform specificity assays under initial velocities at fixed substrate concentration. Compounds were pre-incubated with enzymes for 30 minutes at 25° C. Reactions were initiated by addition of substrate to the plates containing the enzymes (+/−compounds) diluted in assay buffer. Reactions were incubated for 60 minutes at 37° C. Reactions were stopped by adding acetic acid (100 mM final). Readings were performed on a Pherastar Fluorescent Reader (BMG). δ Emission 380 nm; δ Excitation=460 nm. Data (mean values +/− standard deviation) were analyzed as % of control (no compound) and plotted as percentage versus the Log of the compound concentration using GraphPad (Prism). Data were fitted to a sigmoidal model (variable slope).

Row | IC50 | Compound
1 | 0.323 µM | 6-(7)-Chloro-1-methyl-2,3,4,10,10a-pentaaza-cyclopenta[b]fluoren-9-one [Example 3/A]
2 | 0.516 µM | Cc1nnc2nc3c(nn12)C(=O)c1ccccc1-3 [Example 1b/A, 1-Methyl-2,3,4,10,10a-pentaaza-cyclopenta[b]fluoren-9-one]
3 | 0.143 µM | Cc1nnc2nc3c(nn12)-c1ccccc1C3=O [Example 1b/B, 3-Methyl-1,2,3a,4,10-pentaaza-cyclopenta[b]fluoren-9-one]
4 | 0.86 µM | Nc1nnc2nc3c(nn12)C(=O)c1ccccc1-3 [Example 1c/A, 1-Amino-2,3,4,10,10a-pentaaza-cyclopenta[b]fluoren-9-one]
5 | 0.133 µM | Nc1nnc2nc3c(nn12)-c1ccccc1C3=O [Example 1c/B, 3-Amino-1,2,3a,4,10-pentaaza-cyclopenta[b]fluoren-9-one]
6 | 0.43 µM | CCc1nnc2nc3c(nn12)C(=O)c1ccccc1-3 [Example 1d/A, 1-Ethyl-2,3,4,10,10a-pentaaza-cyclopenta[b]fluoren-9-one]
7 | 0.095 µM | CCc1nnc2nc3c(nn12)-c1ccccc1C3=O [Example 1d/B, 3-Ethyl-1,2,3a, 4,10-pentaaza-cyclopenta[b]fluoran-9-one]
8 | 1.27 µM | CCCc1nnc2nc3c(nn12)C(=O)c1ccccc1-3 [Example 1e/A, 1-Propyl-2,3,4,10,10a-pentaaza-cyclopenta[b]fluoren-9-one]
9 | 0.168 µM | CCCc1nnc2nc3c(nn12)-c1ccccc1C3=O [Example 1e/B, 3-Propyl-1,2,3a, 4,10-pentaaza-cyclopenta[b]fluoren-9-one]
10 | 0.364 µM | CCCCc1nnc2nc3c(nn12)C(=O)c1ccccc1-3 [Example 1f/A, 1-Butyl-2,3,4,10,10a-pentaaza-cyclopenta[b]fluoren-9-one]
11 | 0.091 µM | CCCCc1nnc2nc3c(nn12)-c1ccccc1C3=O [Example 1f/B, 3-Butyl-1,2,3a,4,10-pentaaza-cyclopenta[b]fluoren-9-one]
12 | 0.636 µM | CC(C)Cc1nnc2nc3c(nn12)C(=O)c1ccccc1-3 [Example 1g/A, 1-Isobutyl-2,3,4,10,10a-pentaaza-cyclopenta[b]fluoren-9-one]
13 | 0.183 µM | CC(C)Cc1nnc2nc3c(nn12)-c1ccccc1C3=O [Example 1g/B, 3-Isobutyl-1,2,3a,4,10-pentaaza-cyclopenta[b]fluoren-9-one]
14 | 0.39 µM | O=C1c2ccccc2-c2nc3nnc(CO)n3nc21 [Example 1h/A, 1-Hydroxymethyl-2,3,4,10,10a-pentaaza-cyclopenta[b]fluoren-9-one]
15 | 0.158 µM | O=C1c2ccccc2-c2nn3c(CO)nnc3nc21 [Example 1h/B]
16 | 0.261 µM | COCc1nnc2nc3c(nn12)C(=O)c1ccccc1-3 [Example 1i/A, 1-Methoxymethyl-2,3,4,10,10a-pentaaza-cyclopenta[b]fluoren-9-one]
17 | 0.202 µM | COCc1nnc2nc3c(nn12)-c1ccccc1C3=O [Example 1i/B, 3-Methoxymethyl-1,2,3a, 4,10-pentaaza-cyclopenta[b]fluoren-9-one]
18 | 1.9 µM | O=C1c2ccccc2-c2nc3nnc(C4CC4)n3nc21 [Example 1j/A, 1-Cyclopropyl-2,3,4,10,10a-pentaaza-cyclopenta[b]fluoren-9-one]
19 | 0.055 µM | O=C1c2ccccc2-c2nn3c(C4CC4)nnc3nc21 [Example 1j/B, 3-Cyclopropyl-1,2,3a,4,10-pentaaza-cyclopenta[b]fluoren-9-one]
20 | 0.598 µM | O=C1c2ccccc2-c2nc3nnc(Cc4ccccc4)n3nc21 [Example 1k/A, 1-Benzyl-2,3,4,10,10a-pentaaza-cyclopenta[b]fluoren-9-one]
21 | 0.164 µM | O=C1c2ccccc2-c2nn3c(Cc4ccccc4)nnc3nc21 [Example 1k/B, 3-Benzyl-1,2,3a,4,10-pentaaza-cyclopenta[b]fluoren-9-one]
22 | 0.071 µM | Cc1nnc2nc3c(nn12)-c1ccc(Cl)cc1C3=O [Example 3/B, 7-Chloro-3-methyl-1,2,3a, 4,10-pentaaza-cyclopenta[b]fluoren-9-one]
23 | 3.4 µM | Cn1nc2nc3c(nc2n1)-c1ccccc1C3=O [Example 4a, 2-Methyl-2H-1,2,3,4,10-pentaaza-cyclopenta[b]fluoren-9-one]
24 | 7.8 µM | O=C1c2ccccc2-c2nc3nn(Cc4ccccc4)nc3nc21 [Example 4b, 2-Benzyl-2H-1,2,3,4,10-pentaaza-cyclopenta[b]fluoren-9-one]

The compounds below were run against T2, USP5 (Homo sapiens, UniProt P45974) (assay: USP5 Activity Assay). Conditions: 400 nM Ub-AMC; 300 pM enzyme; pre-incubated 30 minutes at 25° C., 60 minutes at 37° C.; sigmoidal fit; read-out: USP 5 (Inhibition of cysteine protease activities).
T2 sequence (P45974 1-858): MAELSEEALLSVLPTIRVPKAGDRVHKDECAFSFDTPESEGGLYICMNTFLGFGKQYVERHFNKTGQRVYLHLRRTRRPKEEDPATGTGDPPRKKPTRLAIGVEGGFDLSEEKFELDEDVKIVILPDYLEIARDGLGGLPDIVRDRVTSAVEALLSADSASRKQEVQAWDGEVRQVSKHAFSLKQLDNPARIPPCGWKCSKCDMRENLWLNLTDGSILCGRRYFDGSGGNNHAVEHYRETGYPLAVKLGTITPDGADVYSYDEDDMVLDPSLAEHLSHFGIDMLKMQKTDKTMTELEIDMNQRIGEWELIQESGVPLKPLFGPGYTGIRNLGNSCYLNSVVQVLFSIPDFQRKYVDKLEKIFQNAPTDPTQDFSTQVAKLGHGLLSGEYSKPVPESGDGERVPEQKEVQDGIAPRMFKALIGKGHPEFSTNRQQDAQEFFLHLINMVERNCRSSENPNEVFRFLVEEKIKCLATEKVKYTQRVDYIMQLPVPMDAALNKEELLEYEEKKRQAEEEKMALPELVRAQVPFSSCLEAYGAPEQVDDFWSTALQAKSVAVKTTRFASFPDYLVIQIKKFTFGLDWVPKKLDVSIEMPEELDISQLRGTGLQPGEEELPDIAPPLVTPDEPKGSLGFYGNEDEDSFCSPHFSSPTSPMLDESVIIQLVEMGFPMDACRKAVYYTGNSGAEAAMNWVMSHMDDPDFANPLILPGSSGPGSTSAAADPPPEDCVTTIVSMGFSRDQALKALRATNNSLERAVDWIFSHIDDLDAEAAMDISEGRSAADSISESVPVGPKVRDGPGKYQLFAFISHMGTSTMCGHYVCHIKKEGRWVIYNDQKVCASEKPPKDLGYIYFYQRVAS
Assay type: biochemical
Procedure: USP5 was diluted in USP buffer (50 mM Tris HCl; 0.5 mM EDTA; 5 mM DTT; 0.01% Triton X-100; Bovine Serum Albumin 0.05 mg.ml^−1 pH 7.6). Compounds stocks (100 mM) were stored at −20° C. in DMSO.
Reactions were performed as duplicates in Black LJL 96 well plates (HE microplates; Molecular Devices; 20 μl final reaction volume). The substrate concentration for USP5 was 400 nM Ub-AMC (Boston Biochem). The concentrations of the enzyme (USP5) in specificity assays was 300 pM. The concentrations were determined in order to perform specificity assays under initial velocities at fixed substrate concentration. Compounds were pre-incubated with enzymes for 30 minutes at 25° C. Reactions were initiated by addition of substrate to the plates containing the enzymes (+/− compounds) diluted in assay buffer. Reactions were incubated for 60 minutes at 37° C. Reactions were stopped by adding acetic acid (100 mM final). Readings were performed on a Pherastar Fluorescent Reader (BMG). λ Emission 380 nm; λ Excitation=460 nm. Data (mean values +/− standard deviation) were analyzed as % of control (no compound) and plotted as percentage versus the Log of the compound concentration using GraphPad (Prism). Data were fitted to a sigmoidal model (variable slope).

Row | IC50 | Compound
25 | 1.54 µM | 6-(7)-Chloro-1-methyl-2,3,4,10,10a-pentaaza-cyclopenta[b]fluoren-9-one [Example 3/A]
26 | 7.6 µM | Cc1nnc2nc3c(nn12)C(=O)c1ccccc1-3 [Example 1b/A, 1-Methyl-2,3,4,10,10a-pentaaza-cyclopenta[b]fluoren-9-one]
27 | 2.8 µM | Nc1nnc2nc3c(nn12)C(=O)c1ccccc1-3 [Example 1c/A, 1-Amino-2,3,4,10,10a-pentaaza-cyclopenta[b]fluoren-9-one]
28 | 3.23 µM | CCc1nnc2nc3c(nn12)C(=O)c1ccccc1-3 [Example 1d/A, 1-Ethyl-2,3,4,10,10a-pentaaza-cyclopenta[b]fluoren-9-one]
29 | > 100 µM | CCCc1nnc2nc3c(nn12)C(=O)c1ccccc1-3 [Example 1e/A, 1-Propyl-2,3,4,10,10a-pentaaza-cyclopenta[b]fluoren-9-one]
30 | 3.9 µM | CCCCc1nnc2nc3c(nn12)C(=O)c1ccccc1-3 [Example 1f/A, 1-Butyl-2,3,4,10,10a-pentaaza-cyclopenta[b]fluoren-9-one]
31 | 0.237 µM | CCCCc1nnc2nc3c(nn12)-c1ccccc1C3=O [Example 1f/B, 3-Butyl-1,2,3a,4,10-pentaaza-cyclopenta[b]fluoren-9-one]
32 | > 100 µM | CC(C)Cc1nnc2nc3c(nn12)C(=O)c1ccccc1-3 [Example 1g/A, 1-Isobutyl-2,3,4,10,10a-pentaaza-cyclopenta[b]fluoren-9-one]
33 | 2.5 µM | O=C1c2ccccc2-c2nc3nnc(CO)n3nc21 [Example 1h/A, 1-Hydroxymethyl-2,3,4,10,10a-pentaaza-cyclopenta[b]fluoren-9-one]
34 | > 100 µM | COCc1nnc2nc3c(nn12)C(=O)c1ccccc1-3 [Example 1i/A, 1-Methoxymethyl-2,3,4,10,10a-pentaaza-cyclopenta[b]fluoren-9-one]
35 | 0.487 µM | COCc1nnc2nc3c(nn12)-c1ccccc1C3=O [Example 1i/B, 3-Methoxymethyl-1,2,3a, 4,10-pentaaza-cyclopenta[b]fluoren-9-one]
36 | 0.26 µM | Cc1nnc2nc3c(nn12)-c1ccc(Cl)cc1C3=O [Example 3/B, 7-Chloro-3-methyl-1,2,3a, 4,10-pentaaza-cyclopenta[b]fluoren-9-one]
37 | 23 µM | Cn1nc2nc3c(nc2n1)-c1ccccc1C3=O [Example 4a, 2-Methyl-2H-1,2,3,4,10-pentaaza-cyclopenta[b]fluoren-9-one]
